The values below come from paper PMC5597618, “Identification and characterization of the novel reversible and selective cathepsin X inhibitors” (Scientific Reports, 2017).

Each structure is given as a SMILES string.

As usually defined, the inhibition is how much of the control response was suppressed.

The target in the first assay is cathepsin X (Homo sapiens, UniProt Q9UBR2). The experiment in a line: Determination of relative inhibition of cathepsin X. The arrangement: made in house; host or cells: Pichia pastoris. Conditions: screening at 50 μM compound. The assay is classed as biochemical. The procedure: Recombinant or native human cathepsins were used: recombinant cathepsin X and cathepsin S were expressed in Pichia pastoris, recombinant cathepsins B and L in E. coli, [43], native cathepsin H was isolated from human liver. Assay buffers for determining activities of cathepsins X and L consisted of 100 mM sodium acetate buffer, pH 5.5, for cathepsins H, S and B (endopeptidase activity) of 100 mM phosphate buffer pH 6.8, 6.5 and 6.0, respectively and for cathepsin B (exopeptidase activity) of 60 mM acetate buffer pH 5.0. Each assay buffer contained 0.01% Triton X-100 to prevent false positive inhibition due to aggregation of compounds[45], 5 mM cysteine, 1.5 mM EDTA and 0.1% PEG 8000. Enzymes were activated at 37 °C for 5 min before the assays.
Chain of cathepsin X (Q9UBR2 62-303): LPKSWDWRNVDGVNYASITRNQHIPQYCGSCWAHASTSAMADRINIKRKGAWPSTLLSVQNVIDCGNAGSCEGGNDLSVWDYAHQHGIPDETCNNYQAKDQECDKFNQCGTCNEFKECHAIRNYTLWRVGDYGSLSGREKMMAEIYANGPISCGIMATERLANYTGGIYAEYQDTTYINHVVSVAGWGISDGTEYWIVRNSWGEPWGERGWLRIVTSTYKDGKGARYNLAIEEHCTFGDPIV
Abz-FEK(Dnp)-OH was used as cathepsin X specific substrate in activity assays. 90 μL of activated cathepsin X (20 nM) was added to a black 96-well plate with 5 μL of substrate (3.25 μM final concentration) and 5 μL of the compound (50 μM final concentration). The reaction was monitored continuously at 420 nm ± 10 nm with excitation at 320 nm ± 20 nm and at 37 °C. Relative inhibition (%) was calculated with the equation (1 − v i/v 0) × 100, where v i is reaction velocity in the presence of the compound and v 0 is reaction velocity without the compound.
Regarding `COc1cc2c(cc1OC)CN(C(=O)CSc1n[nH]c(N)n1)CC2` [Compound 7, 2-((5-Amino-1H-1,2,4-triazol-3-yl)thio)-1-(6,7-dimethoxy-3,4-dihydroisoquinolin-2(1 H)-yl)ethanone], the “relative inhibition of cathepsin X” value was “devoid of any inhibitory activity”.

Still in this assay, the particulars now being: second group; 50 μM compound; 1 h preincubation; read-out: % inhibition (1 h preincubation).
For the molecule `Cc1[nH]c2ccccc2c1C(=O)CSc1nnc[nH]1` [Compound 6, 2-((4H-1,2,4-triazol-3-yl)thio)-1-(2-methyl-1H-indol-3-yl)ethanone], the inhibition at 50 µM was found to be 44%. In the case of `COc1cc2c(cc1OC)CN(C(=O)CSc1n[nH]c(N)n1)CC2` [Compound 7, 2-((5-Amino-1H-1,2,4-triazol-3-yl)thio)-1-(6,7-dimethoxy-3,4-dihydroisoquinolin-2(1 H)-yl)ethanone], the inhibition at 50 µM is 0%. As for `Nc1nc(SCC(=O)c2ccc3c(c2)OCO3)n[nH]1` [Compound 8, 2-((5-Amino-1H-1,2,4-triazol-3-yl)thio)-1-(benzo[d][1,3]dioxol-5-yl) ethanone], the inhibition at 50 µM was 67%.

Take `Nc1nc(SCC(=O)c2ccc(Oc3ccccc3)cc2)n[nH]1` [Compound 9, 2-((5-Amino-1H-1,2,4-triazol-3-yl)thio)-1-(4-phenoxyphenyl)ethanone]: the inhibition at 50 µM was 27%.

As for `Nc1nc(SCC(=O)c2ccc(-c3ccccc3)cc2)n[nH]1` [Compound 10, 1-([1,1′-Biphenyl]-4-yl)-2-((5-amino-1H-1,2,4-triazol-3-yl)thio)ethanone], the inhibition at 50 µM was found to be 64%.

Take `O=C(CSc1nc[nH]n1)c1ccc2c(c1)OCCO2` [Compound 11, 2-((1H-1,2,4-triazol-3-yl)thio)-1-(2,3-dihydrobenzo[b][1,4]dioxin-6-yl) ethanone]: the inhibition at 50 µM is 72%. For the molecule `Cc1ccc(C(=O)CSc2n[nH]c(N)n2)cc1` [Compound 13, 2-((5-Amino-1H-1,2,4-triazol-3-yl)thio)-1-(p-tolyl)ethanone], the inhibition at 50 µM worked out at 22%. Take `Cc1[nH]c2ccccc2c1C(=O)C(C)Sc1n[nH]c(N)n1` (stereo not shown) [Compound 15, 2-((5-Amino-1H-1,2,4-triazol-3-yl)thio)-1-(2-methyl-1H-indol-3-yl)propan-1-one]: the inhibition at 50 µM came out at 23%.

As for `N#Cc1ccc(C(=O)CSc2n[nH]c(N)n2)cc1` [Compound 16, 4-(2-((5-Amino-1H-1,2,4-triazol-3-yl)thio)acetyl)benzonitrile], the inhibition at 50 µM was 15%.

With `COc1ccc(C(=O)C(C)Sc2nncn2C)cc1OC` (stereo not shown) [Compound 18, 1-(3,4-Dimethoxyphenyl)-2-((4-methyl-4H-1,2,4-triazol-3-yl)thio)propan-1-one], the inhibition at 50 µM turned out to be 25%. Consider `Nc1cc(N)nc(SCC(=O)c2ccc3c(c2)OCCO3)n1` [Compound 19, 2-((4,6-Diaminopyrimidin-2-yl)thio)-1-(2,3-dihydrobenzo[b][1,4]dioxin-6-yl)ethan-1-one], for which the inhibition at 50 µM was found to be 27%. For the molecule `COc1ccc(C(=O)CSc2n[nH]c(N)n2)cc1F` [Compound 21, 2-((5-Amino-1H-1,2,4-triazol-3-yl)thio)-1-(3-fluoro-4-methoxyphenyl)ethan-1-one], the inhibition at 50 µM came out at 39%. On to `O=C(CSc1nncn1-c1ccccc1)c1ccc2c(c1)OCCO2` [Compound 23, 1-(2,3-Dihydrobenzo[b][1,4]dioxin-6-yl)-2-((4-phenyl-4H-1,2,4-triazol-3-yl)thio)ethan-1-one], for which the inhibition at 50 µM turned out to be 72%.

On to `COc1ccccc1-n1cnnc1SCC(=O)c1ccc2c(c1)OCCO2` [Compound 24, 1-(2,3-Dihydrobenzo[b][1,4]dioxin-6-yl)-2-((4-(2-methoxyphenyl)-4H-1,2,4-triazol-3-yl)thio)ethan-1-one], for which the inhibition at 50 µM came out at 73%. For `COc1ccccc1C(=O)CSc1n[nH]c(N)n1` [Compound 25, 2-((5-Amino-1H-1,2,4-triazol-3-yl)thio)-1-(2-methoxyphenyl)ethan-1-one], the inhibition at 50 µM stood at 50%.
